Literature values as cited in patent US5364615A (priority 1992, dated 1994).

Test system: Pneumocystis carinii
Conditions: cited from earlier work

## N=C(N)c1ccc(OCCCCCOc2ccc(C(=N)N)cc2)cc1 [pentamidine, p,p'-(pentamethylenedioxy)dibenzamidine]
baseline, literature
  Pre therapy DLCO: 59.0 percent predicted
  Pre therapy PaO2: 69.3 torr
  Pre therapy Vital Capacity: 70 percent predicted
literature
  Successful Treatment W/ Change, %: 95%
  Successful Treatment w/o Change, %: 40%
Post therapy, literature (TMP-DPS: only 8 patients tested)
  Post therapy PaO2: 87.2 torr
Post therapy, literature
  Post therapy DLCO: 62 percent predicted
  Post therapy Vital Capacity: 80 percent predicted
